Measured values taken from publication PMC7840129, “Structural basis for heme-dependent NCoR binding to the transcriptional repressor REV-ERBβ” (Science Advances, 2021).

Target: T1, Apo REV-ERBβ LBD (Homo sapiens, UniProt Q14995)
T1 construct: The human REV-ERBβ LBD (residues 381 to 579) was previously cloned; 6xHis with 3C protease cleavage site (N, cleaved yes); made in house; host or cells: E. coli BL21(DE3)
T1 sequence (Q14995 381-579): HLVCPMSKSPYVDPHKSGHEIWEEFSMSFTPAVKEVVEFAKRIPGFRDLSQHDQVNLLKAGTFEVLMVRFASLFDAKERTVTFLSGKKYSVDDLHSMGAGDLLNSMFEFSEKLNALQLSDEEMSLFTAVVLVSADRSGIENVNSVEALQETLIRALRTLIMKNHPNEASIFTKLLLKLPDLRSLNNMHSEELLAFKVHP
Experiment: ITC, NCoR ID peptides with apo REV-ERBβ LBD
Format: binding
Excerpt: The human REV-ERBβ LBD (residues 381 to 579) was previously cloned into the pET46 vector ([18]). The mouse NCoR RID (residues 1942 to 2208 in the X50 splice variant), which has 87% sequence identity to human NCoR RID (100% sequence identity in the ID motifs), was previously cloned into the pET32 vector ([29]). NCoR RID mutants were generated by site-directed mutagenesis: The ID1 CoRNR box motif was mutated from […] to […] (ΔID1 and ΔID1ΔID2), and the ID2 CoRNR box motif was mutated from LEDIIRKAL to TEDTTRKAL (ΔID2 and ΔID1ΔID2), as these mutations were previously reported to disrupt CoRNR box binding ([10], [30]). Heme (Sigma-Aldrich, no. 51280) was prepared either as a 1 mM stock in dimethyl sulfoxide (DMSO) stored at 4°C or 50 mM stock in 0.2 M NaOH (solutions prepared in 0.2 M NaOH were always made fresh immediately before the experiment), where indicated. […] Human embryonic kidney (HEK) 293T cells (American Type Culture Collection, no. CRL-11268) were cultured in Dulbecco’s modified eagle medium (DMEM) supplemented with 10% fetal bovine serum, 2 mM L-glutamine, and 1% penicillin-streptomycin at 37°C and 5% CO2 under standard culture conditions. The pcDNA3.1^+ expression vector containing full-length human REV-ERBβ ([31]) and the pGL3-Bmal1-luciferase construct containing the Bmal1 promoter (−816 to +99 of the mouse Bmal1 promoter region) were used in HEK293T cell transfections. Site-directed mutagenesis was performed to mutate the proximal RORE (pRORE mutant), distal RORE (dRORE mutant), or both (p/dRORE mutant) in the pGL3-Bmal1-luciferase construct based on a previous study ([6]) where the ROREs were mutated to disrupt REV-ERBα activity.
Human REV-ERBβ LBD was expressed in BL21(DE3) Escherichia coli cells with an N-terminal hexahistidine (6xHis) tag separated by a 3C protease cleavage site. Expression was performed using auto-induction media: Cells were grown at 37°C for 5 hours, 30°C for 1 hour, and 18°C for 16 hours before harvesting by centrifugation. Pellets were resuspended in potassium phosphate lysis buffer [40 mM potassium phosphate (pH 7.4), 500 mM KCl, 15 mM imidazole, and 1 mM dithiothreitol (DTT)] supplemented with leupeptin, pepstatin A, lysozyme, and deoxyribonuclease (DNase) I and sonicated on ice. […] A 5-ml aliquot of 6xHis-tagged protein was purified by size exclusion chromatography using a Superdex 75 column equilibrated in time-resolved fluorescence energy transfer (TR-FRET) assay buffer [20 mM potassium phosphate (pH 7.4), 50 mM KCl, and 0.5 mM EDTA]; purified aliquots were stored at −80°C for TR-FRET assays. To cleave the 6xHis tag from the remaining protein, it was incubated overnight with 3C protease (generated in-house) via dialysis; then, protein was reloaded onto the HisTrap columns, and the flow-through was collected. Last, aggregates were removed by size exclusion chromatography using a Superdex 75 column and Hepes gel filtration buffer [20 mM Hepes (pH 7.4), 50 mM KCl, and 0.5 mM EDTA]. Greater than 95% purity was confirmed by SDS-PAGE. Protein was aliquoted and stored at −80°C.
ITC experiments were performed using a MicroCal iTC200. All experiments were solvent-matched and contained 0.1% DMSO (peptide vehicle) and 0.2% 0.2 M solution of NaOH (heme vehicle) final concentrations. NITPIC software ([37]) was used to calculate baselines and integrate curves and prepare experimental data for fitting in SEDPHAT, which was used to generate final binding affinity and thermodynamic parameter measurements ([38]).Final figures were exported to GUSSI for publication-quality figure preparation ([39]).
NCoR ID1 and NCoR ID2 peptides were prepared at 50 μM in assay buffer [20 mM Hepes (pH 7.4), 50 mM KCl, 0.5 mM EDTA, and 5 mM tris(2-carboxyethyl)phosphine (TCEP)], and REV-ERBβ LBD was prepared at 500 μM. […]

[1] = ID2 peptide, 25°C, fitted estimate due to low c value, 95% CI n.d.
[2] = ID1 peptide, pH 7.4, 25°C, 95% CI

## CC[C@H](C)[C@H](NC(=O)[C@H](CC(=O)O)NC(=O)[C@H](CCC(=O)O)NC(=O)[C@H](CC(C)C)NC(=O)CNC(=O)[C@H](CC(C)C)NC(=O)[C@H](CC(N)=O)NC(=O)[C@H](CO)NC(=O)[C@H](C)NC(=O)[C@@H]1CCCN1C(=O)[C@H](CC(=O)O)NC(C)=O)C(=O)N[C@H](C(=O)N[C@@H](CCCNC(=N)N)C(=O)N[C@@H](CCCCN)C(=O)N[C@@H](C)C(=O)N[C@@H](CC(C)C)C(=O)N[C@@H](CCSC)C(=O)NCC(=O)N[C@@H](CO)C(=O)N[C@@H](Cc1ccccc1)C(=O)N[C@@H](CC(=O)O)C(=O)N[C@@H](CC(=O)O)C(=O)N[C@@H](CCCCN)C(N)=O)[C@@H](C)CC [NCoR ID2 peptide]
  affinity of apo LBD for peptide (in words): low affinity
  thermodynamic profile of peptide binding (in words), apo: enthalpically driven and exothermic
[1]
  TΔS: -4.2 kcal/mol
  ΔG, free energy of binding: -5.6 kcal/mol
  ΔH, enthalpy of binding: -9.7 kcal/mol

## Ac-RTHRLITLADHICQIITQDFARN-NH2 [NCoR ID1 peptide]
  affinity of apo LBD for peptide (in words): high affinity
  thermodynamic profile of peptide binding (in words), apo: enthalpically driven and exothermic
[2]
  ΔG, free energy of binding: -8.6 kcal/mol
  ΔH, enthalpy of binding: -7.7 kcal/mol
ID1 peptide, pH 7.4, T constant at 25°C, 95% CI
  TΔS: 0.88 kcal/mol
